Experiments:
Assay in all cases: Test Example 1: herbicidal effect by soil application to paddy field
Type in all cases: in vivo
Settings in all cases: paddy field soil application; active ingredient 1,000 g per 1 hectare; wettable powder added dropwise to water surface the day after sowing; examined on the 21st day after application
[1] = test system: early watergrass (Echinochloa oryzicola Vasing)
Source text: (§1) Test Example 1 Test on Herbicidal Effect by Soil Application to Paddy Field In a 100 cm2 plastic pot, paddy field soil was filled. After puddling and leveling, seeds of early watergrass (Echinochloa oryzicola […] (Monochoria vaginalis ([…] Japanese bulrush (Scirpus juncoides Roxb.) were sown, and water was filled to be flooded to a water depth of 3 cm. […] Then, on the 21st day after the application to the plants grew in a greenhouse, the herbicidal effect was examined in accordance with a standard shown in Table 34. [table]

[2] = test system: heartshape false pickerelweed (Monochoria vaginalis (Burm.f.) C.Presl)
Source text: as §1

[3] = test system: Japanese bulrush (Scirpus juncoides Roxb.)
Source text: as §1

SMILES	herbicidal effect, Echinochloa oryzicola Vasing [1]	herbicidal effect, Monochoria vaginalis (Burm. f.) C. Presl [2]	herbicidal effect, Scirpus juncoides Roxb. [3]
COCn1c(C(F)(F)F)ccc(C(=O)C2=C(O)CCCC2=O)c1=O [I-30]	3 (50 to less than 70% of herbicidal effect and crop phytotoxicity)	5 (90% or more of herbicidal effect and crop phytotoxicity)	3 (50 to less than 70% of herbicidal effect and crop phytotoxicity)
O=C1CCCC(O)=C1C(=O)c1ccc(C(F)(F)F)n(CS(=O)(=O)C2CCCCC2)c1=O [I-62]	5 (90% or more of herbicidal effect and crop phytotoxicity)	5 (90% or more of herbicidal effect and crop phytotoxicity)	4 (70 to less than 90% of herbicidal effect and crop phytotoxicity)
O=C1CCCC(O)=C1C(=O)c1ccc(C(F)(F)F)n(CS(=O)(=O)CC(F)(F)F)c1=O [I-64]	4 (70 to less than 90% of herbicidal effect and crop phytotoxicity)	5 (90% or more of herbicidal effect and crop phytotoxicity)	5 (90% or more of herbicidal effect and crop phytotoxicity)
COc1cccc(-n2c(C(F)(F)F)ccc(C(=O)C3=C(O)CCCC3=O)c2=O)c1 [I-77]	5 (90% or more of herbicidal effect and crop phytotoxicity)	5 (90% or more of herbicidal effect and crop phytotoxicity)	5 (90% or more of herbicidal effect and crop phytotoxicity)
O=C1CCCC(O)=C1C(=O)c1ccc(C(F)(F)F)n(-c2ccc(NS(=O)(=O)C(F)(F)F)cc2)c1=O [I-97]	4 (70 to less than 90% of herbicidal effect and crop phytotoxicity)	5 (90% or more of herbicidal effect and crop phytotoxicity)	4 (70 to less than 90% of herbicidal effect and crop phytotoxicity)
O=C1CCCC(O)=C1C(=O)c1ccc(C(F)(F)F)n(Cc2ccccc2[N+](=O)[O-])c1=O [I-115]	5 (90% or more of herbicidal effect and crop phytotoxicity)	5 (90% or more of herbicidal effect and crop phytotoxicity)	5 (90% or more of herbicidal effect and crop phytotoxicity)
O=C1CCCC(O)=C1C(=O)c1ccc(C(F)(F)F)n(Cc2ccc([N+](=O)[O-])cc2)c1=O [I-117]	5 (90% or more of herbicidal effect and crop phytotoxicity)	5 (90% or more of herbicidal effect and crop phytotoxicity)	5 (90% or more of herbicidal effect and crop phytotoxicity)
COc1ccccc1Cn1c(C(F)(F)F)ccc(C(=O)C2=C(O)CCCC2=O)c1=O [I-120]	5 (90% or more of herbicidal effect and crop phytotoxicity)	5 (90% or more of herbicidal effect and crop phytotoxicity)	5 (90% or more of herbicidal effect and crop phytotoxicity)
COc1cccc(Cn2c(C(F)(F)F)ccc(C(=O)C3=C(O)CCCC3=O)c2=O)c1 [I-121]	5 (90% or more of herbicidal effect and crop phytotoxicity)	5 (90% or more of herbicidal effect and crop phytotoxicity)	5 (90% or more of herbicidal effect and crop phytotoxicity)
COc1ccc(Cn2c(C(F)(F)F)ccc(C(=O)C3=C(O)CCCC3=O)c2=O)cc1 [I-122]	5 (90% or more of herbicidal effect and crop phytotoxicity)	5 (90% or more of herbicidal effect and crop phytotoxicity)	5 (90% or more of herbicidal effect and crop phytotoxicity)
CS(=O)(=O)c1ccc(Cn2c(C(F)(F)F)ccc(C(=O)C3=C(O)CCCC3=O)c2=O)cc1 [I-123]	5 (90% or more of herbicidal effect and crop phytotoxicity)	5 (90% or more of herbicidal effect and crop phytotoxicity)	5 (90% or more of herbicidal effect and crop phytotoxicity)
CCCCCCNn1c(C(F)(F)F)ccc(C(=O)C2=C(O)CCCC2=O)c1=O [I-166]	5 (90% or more of herbicidal effect and crop phytotoxicity)	5 (90% or more of herbicidal effect and crop phytotoxicity)	5 (90% or more of herbicidal effect and crop phytotoxicity)
CCCCN(CCCC)n1c(C(F)(F)F)ccc(C(=O)C2=C(O)CCCC2=O)c1=O [I-174]	5 (90% or more of herbicidal effect and crop phytotoxicity)	5 (90% or more of herbicidal effect and crop phytotoxicity)	5 (90% or more of herbicidal effect and crop phytotoxicity)
CCOC(=O)Nn1c(C(F)(F)F)ccc(C(=O)C2=C(O)CCCC2=O)c1=O [I-192]	5 (90% or more of herbicidal effect and crop phytotoxicity)	5 (90% or more of herbicidal effect and crop phytotoxicity)	5 (90% or more of herbicidal effect and crop phytotoxicity)
CC(C)(C)OC(=O)Nn1c(C(F)(F)F)ccc(C(=O)C2=C(O)CCCC2=O)c1=O [I-193]	5 (90% or more of herbicidal effect and crop phytotoxicity)	5 (90% or more of herbicidal effect and crop phytotoxicity)	5 (90% or more of herbicidal effect and crop phytotoxicity)
CN(C(=O)OC(C)(C)C)n1c(C(F)(F)F)ccc(C(=O)C2=C(O)CCCC2=O)c1=O [I-194]	5 (90% or more of herbicidal effect and crop phytotoxicity)	5 (90% or more of herbicidal effect and crop phytotoxicity)	5 (90% or more of herbicidal effect and crop phytotoxicity)
O=C(Nn1c(C(F)(F)F)ccc(C(=O)C2=C(O)CCCC2=O)c1=O)OCc1ccccc1 [I-196]	5 (90% or more of herbicidal effect and crop phytotoxicity)	5 (90% or more of herbicidal effect and crop phytotoxicity)	4 (70 to less than 90% of herbicidal effect and crop phytotoxicity)
CN(C(=O)OCc1ccccc1)n1c(C(F)(F)F)ccc(C(=O)C2=C(O)CCCC2=O)c1=O [I-197]	5 (90% or more of herbicidal effect and crop phytotoxicity)	5 (90% or more of herbicidal effect and crop phytotoxicity)	5 (90% or more of herbicidal effect and crop phytotoxicity)
Cn1c(C(F)(F)Cl)ccc(C(=O)C2=C(O)CCCC2=O)c1=O [I-225]	5 (90% or more of herbicidal effect and crop phytotoxicity)	5 (90% or more of herbicidal effect and crop phytotoxicity)	5 (90% or more of herbicidal effect and crop phytotoxicity)

From patent US8076487B2, “Pyridone derivative and herbicide” (Kumiai Chemical Industry Co., Ltd., priority 2006, dated 2011)
